Results on 19 molecules are retold here after ChEMBL document CHEMBL1150918, “Phospholipase Cgamma1 inhibitory principles from the sarcotestas of Ginkgo biloba” (J Nat Prod, 1998).

The structures appear in SMILES notation. Values after ≈ are worked out from the molar mass of the structure shown.

Usually IC50 stands for the midpoint of a concentration-inhibition curve. A lower IC50 goes with higher potency.

The test system of experiment [1] is HT1197. The experiment in a line: Growth inhibition of human HT1197 cells after 2 days by SRB assay. It is filed as functional, cell-based. The settings on record: HT1197, 48 h. For orientation: Sulforhodamine B stains cellular protein and so reports cell mass.
For experiment [2], the target named is T1, 1-phosphatidylinositol 4,5-bisphosphate phosphodiesterase gamma-1 (Bos taurus, UniProt P08487).
T1 sequence (P08487 whole entry): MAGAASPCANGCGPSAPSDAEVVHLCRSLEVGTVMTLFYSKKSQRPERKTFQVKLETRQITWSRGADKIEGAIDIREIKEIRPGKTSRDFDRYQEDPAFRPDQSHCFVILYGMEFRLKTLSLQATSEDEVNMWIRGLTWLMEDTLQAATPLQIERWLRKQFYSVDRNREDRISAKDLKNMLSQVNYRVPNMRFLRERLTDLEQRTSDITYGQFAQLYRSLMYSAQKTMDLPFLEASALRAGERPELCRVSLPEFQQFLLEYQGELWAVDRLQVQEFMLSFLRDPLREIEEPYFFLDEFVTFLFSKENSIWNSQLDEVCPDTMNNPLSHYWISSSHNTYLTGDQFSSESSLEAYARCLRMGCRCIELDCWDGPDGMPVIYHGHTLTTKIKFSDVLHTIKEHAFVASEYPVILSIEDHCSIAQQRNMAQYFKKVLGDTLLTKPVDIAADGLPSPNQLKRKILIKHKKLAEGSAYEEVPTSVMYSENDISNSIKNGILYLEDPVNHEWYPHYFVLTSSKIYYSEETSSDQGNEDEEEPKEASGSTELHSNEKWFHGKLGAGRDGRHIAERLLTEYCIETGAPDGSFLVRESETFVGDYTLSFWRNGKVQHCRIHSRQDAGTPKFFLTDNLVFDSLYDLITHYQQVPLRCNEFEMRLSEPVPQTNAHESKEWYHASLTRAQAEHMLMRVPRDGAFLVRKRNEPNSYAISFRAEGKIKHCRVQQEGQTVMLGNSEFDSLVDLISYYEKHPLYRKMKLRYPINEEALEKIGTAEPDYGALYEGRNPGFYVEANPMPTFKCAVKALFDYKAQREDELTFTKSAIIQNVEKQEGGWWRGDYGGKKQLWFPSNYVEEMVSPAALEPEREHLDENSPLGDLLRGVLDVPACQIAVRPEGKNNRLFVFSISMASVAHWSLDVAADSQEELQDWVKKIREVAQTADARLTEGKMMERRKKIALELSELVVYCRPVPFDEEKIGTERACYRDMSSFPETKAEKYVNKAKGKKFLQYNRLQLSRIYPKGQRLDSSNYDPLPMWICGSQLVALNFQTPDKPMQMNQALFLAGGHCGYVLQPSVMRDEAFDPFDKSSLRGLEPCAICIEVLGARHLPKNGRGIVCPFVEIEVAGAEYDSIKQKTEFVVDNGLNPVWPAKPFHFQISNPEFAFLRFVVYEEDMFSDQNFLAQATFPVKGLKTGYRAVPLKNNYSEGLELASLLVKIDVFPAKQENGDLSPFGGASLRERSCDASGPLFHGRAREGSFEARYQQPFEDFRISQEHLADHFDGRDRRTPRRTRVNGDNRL
The experiment in a line: Inhibition of bovine brain PI-PLCgamma1.

The test system of experiment [3] is A549. The experiment in a line: Growth inhibition of human A549 cells after 2 days by SRB assay. Format: functional, cell-based. The note with it: A549, 48 h.
Experiment [4] relates to HCT-15. The experiment in a line: Growth inhibition of human HCT15 cells after 2 days by SRB assay. It is filed as functional, cell-based. The settings on record: HCT-15, 48 h.
Experiment [5] concerns MCF7. The experiment in a line: Growth inhibition of human MCF7 cells after 2 days by SRB assay. It is filed as functional, cell-based. The note with it: MCF7, 48 h.
Experiment [6] relates to SK-OV-3. The experiment in a line: Growth inhibition of human SKOV3 cells after 2 days by SRB assay. It is filed as functional, cell-based. The note with it: SK-OV-3, 48 h.
Experiment [7] is described as follows: Growth inhibition of human CCD-18Co cells after 2 days by SRB assay. Format: cell-based. The settings on record: 48 h.
Experiment [8] is described as follows: Inhibition of pig brain PI-PLCgamma1. On the set-up: species or system Sus scrofa.
Experiment [9] deals with T2, 1-phosphatidylinositol 4,5-bisphosphate phosphodiesterase gamma-1 (Rattus norvegicus, UniProt P10686).
T2 sequence (P10686 whole entry): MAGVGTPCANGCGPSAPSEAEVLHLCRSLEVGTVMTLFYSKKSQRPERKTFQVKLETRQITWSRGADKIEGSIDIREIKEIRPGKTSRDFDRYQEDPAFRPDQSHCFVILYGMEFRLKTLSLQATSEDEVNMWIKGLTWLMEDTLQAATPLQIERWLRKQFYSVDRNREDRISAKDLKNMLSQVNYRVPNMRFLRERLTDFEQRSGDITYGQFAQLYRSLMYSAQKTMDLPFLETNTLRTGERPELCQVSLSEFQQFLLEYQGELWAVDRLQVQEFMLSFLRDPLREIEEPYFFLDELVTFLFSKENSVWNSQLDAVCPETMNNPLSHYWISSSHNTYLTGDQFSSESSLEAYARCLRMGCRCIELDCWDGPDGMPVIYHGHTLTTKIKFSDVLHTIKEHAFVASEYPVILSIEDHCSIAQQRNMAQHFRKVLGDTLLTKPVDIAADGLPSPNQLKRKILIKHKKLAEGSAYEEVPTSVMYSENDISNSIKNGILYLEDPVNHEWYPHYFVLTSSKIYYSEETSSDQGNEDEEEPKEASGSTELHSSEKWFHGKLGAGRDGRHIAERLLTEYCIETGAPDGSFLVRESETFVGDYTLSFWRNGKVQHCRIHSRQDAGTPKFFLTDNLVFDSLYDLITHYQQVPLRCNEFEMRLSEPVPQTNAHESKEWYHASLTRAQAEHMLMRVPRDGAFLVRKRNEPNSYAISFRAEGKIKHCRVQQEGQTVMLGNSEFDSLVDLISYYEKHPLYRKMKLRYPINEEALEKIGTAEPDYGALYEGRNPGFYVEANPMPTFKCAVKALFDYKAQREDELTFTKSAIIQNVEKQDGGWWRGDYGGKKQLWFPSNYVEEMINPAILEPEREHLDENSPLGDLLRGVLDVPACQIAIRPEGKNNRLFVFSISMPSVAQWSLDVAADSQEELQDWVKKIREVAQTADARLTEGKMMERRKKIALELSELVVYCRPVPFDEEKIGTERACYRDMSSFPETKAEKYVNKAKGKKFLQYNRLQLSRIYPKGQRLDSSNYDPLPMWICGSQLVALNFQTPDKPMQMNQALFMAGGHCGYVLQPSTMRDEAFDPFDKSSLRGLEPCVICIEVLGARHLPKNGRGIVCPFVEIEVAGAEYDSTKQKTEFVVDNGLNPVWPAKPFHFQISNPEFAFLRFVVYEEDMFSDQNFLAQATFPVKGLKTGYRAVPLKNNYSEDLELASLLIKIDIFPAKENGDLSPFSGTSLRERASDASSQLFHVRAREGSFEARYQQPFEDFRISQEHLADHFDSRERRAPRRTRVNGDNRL
The experiment in a line: Inhibition of rat brain PI-PLCgamma1.

As to `CCCCCCCCCCCCCCCc1cccc(O)c1`, the concentration for half-maximal inhibition (IC50) in experiment [1] is 41.8 µg/mL (≈ 137 µM); in experiment [2], 58 µM; in [3], 11.9 µg/mL (≈ 39.1 µM); in experiment [4], 31.9 µg/mL (≈ 105 µM); in experiment [5] it was 8.71 µg/mL (≈ 28.6 µM).

With `CCCCCCCCCCCCCc1cccc(O)c1`, the IC50 in experiment [1] is 14.6 µg/mL (≈ 52.7 µM); in experiment [2], 57.8 µM; in experiment [6], over 50 µg/mL; in experiment [3], 25.9 µg/mL (≈ 93.7 µM); in experiment [4], 29.7 µg/mL (≈ 107 µM); in experiment [5], 7.04 µg/mL (≈ 25.5 µM). The molecule also displayed an IC50 in [7] of 73.2 µg/mL (≈ 265 µM).

`CCCCCCCCCCCCCc1cc(O)cc(O)c1`: the IC50 in [1] is 2.2 µg/mL (≈ 7.52 µM); in experiment [2], 72.3 µM; in experiment [6] it was over 50 µg/mL; in experiment [3], over 50 µg/mL; in experiment [4], 15.3 µg/mL (≈ 52.4 µM); in [5], 1.91 µg/mL (≈ 6.53 µM). The IC50 in experiment [7] is over 100 µg/mL.

As to `CCCCCC/C=C\CCCCCCCCCc1cccc(O)c1`, the IC50 was 20.8 µg/mL (≈ 63 µM) in experiment [1]; 9.73 µM in [2]; 11.8 µg/mL (≈ 35.7 µM) in experiment [3]; 32.9 µg/mL (≈ 99.5 µM) in experiment [4]; 7.19 µg/mL (≈ 21.8 µM) in experiment [5]; 66.4 µg/mL (≈ 201 µM) in experiment [7].

`CCCCCC/C=C\CCCCCCCCCc1cc(O)cc(O)c1` gave an IC50 in [2] of 30.6 µM.

`CCCCCC/C=C\CCCCCCCc1cccc(O)c1C(=O)OC` yielded an IC50 in experiment [2] of over 693 µM.

`CCCCCC/C=C\CCCCCCCc1cccc(OC(C)=O)c1C(=O)OC`: the IC50 in experiment [2] is over 621 µM.

For the molecule `CCCCCC/C=C\CCCCCCCc1cc(OC(C)=O)cc(OC(C)=O)c1`, the 50% inhibitory concentration (IC50) in [2] is over 621 µM.

With `CCCCCC/C=C\CCCCCCCc1cccc(OC(C)=O)c1`, the half-maximal inhibitory concentration (IC50) in experiment [2] is over 726 µM.

With `O=c1cc(-c2ccc(O)c(-c3c(O)cc(O)c4c(=O)cc(-c5ccc(O)cc5)oc34)c2)oc2cc(O)cc(O)c12` [AMENTOFLAVONE], 29 µM corresponded to half-maximal inhibition in experiment [2] (IC50).

For `CC(=O)O[C@@H]1[C@H](O[C@H](CO)[C@H](O)[C@@H](O)[C@@H](OC(C)=O)C(=O)O[C@H](C)CCCCCCCCCCCCCCCc2cccc(O)c2C(=O)O)O[C@H](CO)[C@@H](O)[C@@H]1O` [CALOPOROSIDE], half-maximal inhibition in [8] (IC50) was put at 18 µM.

Turning to `CCCCCC/C=C\CCCCCCCc1cccc(O)c1C(=O)O` [GINGKOLIC ACID], the IC50 was 46.3 µg/mL (≈ 134 µM) in [1]; 5.66 µM in experiment [2]; over 50 µg/mL in experiment [6]; 31.3 µg/mL (≈ 90.3 µM) in [3]; 12.7 µg/mL (≈ 36.7 µM) in [4]; 6.44 µg/mL (≈ 18.6 µM) in experiment [5]. In experiment [7], the concentration for half-maximal inhibition (IC50) is 97.1 µg/mL (≈ 280 µM).

With `CCCCCCCCCCCCCc1cccc(O)c1C(=O)O` [GINKGOLIC ACID 13:0], the half-inhibitory concentration (IC50) in [1] is 44.6 µg/mL (≈ 139 µM); in [2], 16.3 µM; in experiment [6] it was 20.4 µg/mL (≈ 63.7 µM); in experiment [3] it was over 50 µg/mL; in [4], over 50 µg/mL; in experiment [5], 22.7 µg/mL (≈ 70.7 µM). The molecule further gave an IC50 in [7] of 59.1 µg/mL (≈ 184 µM).

Turning to `CCCCCC/C=C\CCCCCCCCCc1cccc(O)c1C(=O)O` [GINKGOLIC ACID 17:1], the 50% inhibitory concentration (IC50) is 28.1 µg/mL (≈ 75.1 µM) in experiment [1]; 2.22 µM in experiment [2]; over 50 µg/mL in [6]; 29.2 µg/mL (≈ 78 µM) in experiment [3]; 8.39 µg/mL (≈ 22.4 µM) in experiment [4]; 5.06 µg/mL (≈ 13.5 µM) in [5].

`C[C@@H]1CC[C@H]2[C@]13CC[C@@]1(C)O[C@]2(C)[C@@H](NCCCCN(C)CCCN(C)C)[C@H]1C3` [HISPIDOSPERMIDIN] gave an IC50 in [9] of 16 µM.

As for `Cc1cccc(O)c1` [METACRESOL], the 50% inhibitory concentration (IC50) in [2] was over 2310 µM.

As for `Cc1cc(O)cc(O)c1` [ORCINOL], the IC50 in [2] is over 2010 µM.

On to `O=C(O)c1ccccc1O` [SALICYLIC ACID], for which the IC50 in experiment [2] is 873 µM.

In experiment [9], `CC(=O)c1cc2c(=O)c3c(C(=O)O)c(O)c(O)cc3oc2c(C(C)=O)c1-c1coc2cc(O)c(O)c(C(=O)O)c2c1=O` [VINAXANTHONE] gave a concentration for half-maximal inhibition (IC50) of 5.4 µM.
